Experimental data published in PMC7972453, “The allosteric modulation of complement C5 by knob domain peptides” (eLife, 2021).
Where two headings read alike, the source gives them in different places. Bridges are numbered along the chain shown (N, C = ends). Where no end group is shown, it is not given here.

Target: T1, human C5 (Homo sapiens, UniProt P01031)
T1 construct: tissue TCS Biosciences (serum); host or cells: human serum
Experiment: SPR multi-cycle kinetics, binding to C5
Settings: for fold drop in affinity of alanine mutant: relative to unmodified K8 or K92, SPR multi-cycle kinetics, n = 3
Procedure: Kinetics were measured using a Biacore 8K (GE Healthcare, Amersham, UK) with a CM5 chip, which was prepared as follows: 1-ethyl-3-(−3-dimethylaminopropyl) carbodiimide hydrochloride (EDC)/N-hydroxysuccinimide (NHS) was mixed at 1:1 ratio (flow rate, 10 µL/min; contact time, 30 s), and human C5 at 1 µg/mL in pH 4.5 sodium acetate buffer was injected over flow cell one only (flow rate, 10 µL/min; contact time, 60 s). Final immobilisation levels in the range of 2000–3000 RUs were obtained to yield theoretical Rmax values of ~50–60 RU. […] After each injection, the surface was regenerated with two sequential injections of 2 M MgCl2 (flow rate, 30 µL/min; contact time, 30 s). Binding to the reference surface was subtracted, and the data were fitted to a single-site binding model using Biacore evaluation software.
Table 2.6. Validation of molecular interactions by peptide mutagenesis analysis.
Summary of SPR multi-cycle kinetics

[1] = Biacore 8K, HBS-EP pH 7.4, single-site model, mean of n=3, read-out: mean KD
[2] = pH 7.4, read-out: mean koff, Biacore 8K, HBS-EP pH 7.4, mean of n=3
[3] = pH 7.4, read-out: mean kon, Biacore 8K, CM5 chip, HBS-EP pH 7.4, mean of n=3

Kd [1] [nM]	Kd (replicate n=1, read-out: KD) [nM]	Kd (replicate n=2, read-out: KD) [nM]	Kd (replicate n=3, read-out: KD) [nM]	Substance	mean stoich. ratio (Biacore 8K, mean of n=3)	koff [2] [s⁻¹]	kon [3] [M⁻¹ s⁻¹]	fold drop in affinity of alanine mutant	koff (replicate n=1) [s⁻¹]	kon (replicate n=1) [M⁻¹ s⁻¹]	stoich. ratio (replicate n=1)	koff (replicate n=2) [s⁻¹]	kon (replicate n=2) [M⁻¹ s⁻¹]	stoich. ratio (replicate n=2)	koff (replicate n=3) [s⁻¹]	kon (replicate n=3) [M⁻¹ s⁻¹]	stoich. ratio (replicate n=3)
497	437	411	644	K92 W21A: alanine mutant of K92 (CPEGWSECGVAIYGYACGRAGCGHFLNSGPNISP)													
				SVCPDGFDWGYGCAAGSSRFCTAHDWCCYDERADSHTYGFCTGNRVENLYFQ (disulfide 3-28, 13-21, 27-41 (inferred)) [K8 R22A]	0.27	0.000599	54000	twofold decrease in affinity	0.000565	59200	0.29	0.000672	53500	0.24	0.000561	49400	0.27
18.8	14.9	21.5	19.9	K92 F26A: alanine mutant of K92 (CPEGWSECGVAIYGYACGRWGCGHALNSGPNISP)													
				SVCPDGFDWGYGCAAGSSRFCTRHDWCCYDEAADSHTYGFCTGNRVENLYFQ (disulfide 3-28, 13-21, 27-41 (inferred)) [K8 R31A]	0.75	0.00152	462	715 -fold	0.00182	786	0.36	0.00125	336	0.71	0.00149	263	1.18
